These results are taken from ChEMBL document CHEMBL1201862, “PubChem BioAssay data set” (2004).

Some test systems named below: MDA-N; OVCAR-3; NCI-H23; UACC-62; A498; EKVX; SW-620; HCT-15; SR; PC-3; MDA-MB-435; SK-MEL-2; OVCAR-4; K562; UO-31; OVCAR-5; HL-60; ACHN; TK-10; IGROV-1.
What all share (test): inhibition of tumour cell growth, NCI panel, 48 h

SMILES strings stand for the structures.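 Five compound concentrations were applied to cells in 96-well plates for 48 hours; endpoints were derived by simple linear interpolation of the resulting dose-response curve. At the GI50, growth is halved.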 The source made the active and inactive calls. Cut-off read from the data, not from the text of the source: active = GI50 up to about 1.1 µM and inactive = higher. Where only a bound is given, the exact number is not on record here.

`CCOc1cc(/C=N\N(C)C)cc(/C=N\N(C)C)c1O`: the GI50 with MDA-N was 32.8 µM (inactive); in the assay with OVCAR-3 it was 31.7 µM (inactive); with NCI-H23, > 100 µM (inactive); in the assay on UACC-62, 69 µM (inactive); in the assay on A498, 55.5 µM (inactive); in the assay on EKVX it was 71.6 µM (inactive). Further, the GI50 is 53.3 µM (inactive) in the assay with SW-620; 35.2 µM in the assay with HCT-15; 38 µM (inactive) in the assay with SR; 33.2 µM (inactive) in the assay on PC-3; 32.5 µM (inactive) in the assay with MDA-MB-435; 28.2 µM (inactive) in the assay on SK-MEL-2. Further, the GI50 with OVCAR-4 is > 100 µM (inactive); in the assay with K562, > 100 µM (inactive); in the assay on UO-31 it was 29.4 µM (inactive); in the assay with OVCAR-5 it was 48.2 µM (inactive); in the assay with HL-60 it was 52.5 µM (inactive); with ACHN it was 21.5 µM (inactive). In the assay on TK-10, the GI50 is 69.2 µM (inactive).

As to `COc1ccc(C2OCCN2C)cc1` (stereo not drawn), the GI50 in the assay on MDA-N, in the assay on OVCAR-3, with NCI-H23, in the assay with UACC-62, with A498 and in the assay with IGROV-1 was > 100 µM (inactive) throughout. For the same compound, the GI50 in the assay with EKVX was > 100 µM (inactive); with SW-620, > 100 µM (inactive); in the assay on HCT-15 it was more than 100 µM; with SR it was > 100 µM (inactive); in the assay with PC-3, > 100 µM (inactive); in the assay on MDA-MB-435, > 100 µM (inactive). For the same compound, the GI50 with SK-MEL-2, with OVCAR-4, in the assay with K562, in the assay with UO-31, with OVCAR-5 and in the assay on ACHN was > 100 µM (inactive) throughout. Further, the GI50 with TK-10 was > 100 µM (inactive).

With `CN(C)Cc1cc(C(C)(C)C)cc(CNC2CCCCC2)c1O`, the GI50 in the assay on MDA-N was 83.8 µM (inactive); in the assay with OVCAR-3, 29.9 µM (inactive); in the assay on NCI-H23 it was 69.7 µM (inactive); with UACC-62, 51.9 µM (inactive); with A498, 27.9 µM (inactive); in the assay with IGROV-1 it was 29.4 µM (inactive). The GI50 with EKVX is 15.8 µM (inactive); with SW-620, 33.5 µM (inactive); in the assay with HCT-15, 28.8 µM; in the assay on SR it was 19.7 µM (inactive); with PC-3 it was 24.6 µM (inactive); in the assay on MDA-MB-435, 65.9 µM (inactive). For the same compound, the GI50 in the assay with SK-MEL-2 was > 100 µM (inactive); in the assay on OVCAR-4 it was 35.6 µM (inactive); with K562, 22.1 µM (inactive); in the assay on UO-31, 15.6 µM (inactive); in the assay on OVCAR-5 it was 19.2 µM (inactive); in the assay with ACHN it was 42.9 µM (inactive). Also, the GI50 in the assay with TK-10 was 27.7 µM (inactive).

Consider `N=C(CC/C(N)=N/O)NO`, for which the GI50 in the assay on MDA-N, in the assay on OVCAR-3, in the assay with NCI-H23, in the assay with UACC-62, with A498 and in the assay with IGROV-1 was > 100 µM (inactive) each time. Besides, the GI50 is > 100 µM (inactive) with EKVX; > 100 µM (inactive) in the assay with SW-620; more than 100 µM in the assay with HCT-15; > 100 µM (inactive) with SR; > 100 µM (inactive) with PC-3; > 100 µM (inactive) in the assay with MDA-MB-435. In addition, the GI50 in the assay on SK-MEL-2, in the assay with OVCAR-4, in the assay with K562, in the assay with UO-31, in the assay with OVCAR-5 and in the assay with ACHN was > 100 µM (inactive) each time. Further, the GI50 in the assay with TK-10 was > 100 µM (inactive).

Take `COC1C(OC(=O)c2ccc(C)[nH]2)C(O)C(Oc2ccc3c(O)c(NC(=O)c4ccc(O)c(CC=C(C)C)c4)c(=O)oc3c2Cl)OC1(C)C` (stereo not drawn): the GI50 in the assay on MDA-N is 23 µM (inactive); in the assay on OVCAR-3 it was 18.7 µM (inactive); in the assay with NCI-H23, 20.1 µM (inactive); in the assay on UACC-62, 15.7 µM (inactive); in the assay with A498, 17.9 µM (inactive); in the assay on IGROV-1, 15.5 µM (inactive). The GI50 in the assay on EKVX is 18.7 µM (inactive); in the assay on SW-620, 18.5 µM (inactive); with HCT-15, 18.5 µM; in the assay with SR, 22.5 µM (inactive); with PC-3 it was 12.9 µM (inactive); in the assay with MDA-MB-435, 30.2 µM (inactive). The GI50 in the assay with SK-MEL-2 was 13.2 µM (inactive); with OVCAR-4, 26.6 µM (inactive); in the assay on K562 it was 29.6 µM (inactive); in the assay on OVCAR-5, 15.9 µM (inactive); in the assay with HL-60, 26.3 µM (inactive); in the assay on ACHN it was 38.3 µM (inactive). In the assay on TK-10, the GI50 was 55.3 µM (inactive).

`C#CCOC(=O)C(N)CSSCC(N)C(=O)O` (stereo not drawn): the GI50 in the assay on MDA-N, in the assay with NCI-H23, with UACC-62, with A498, in the assay with IGROV-1 and in the assay with EKVX was > 100 µM (inactive) in each case. The GI50 in the assay on SW-620 is > 100 µM (inactive); in the assay with HCT-15 it was more than 100 µM; in the assay on SR, > 100 µM (inactive); in the assay with PC-3, > 100 µM (inactive); in the assay with MDA-MB-435 it was > 100 µM (inactive); in the assay with SK-MEL-2, > 100 µM (inactive). Further, the GI50 in the assay with OVCAR-4, with UO-31, with OVCAR-5, in the assay on HL-60, with ACHN and in the assay on TK-10 was > 100 µM (inactive) in each case.

Regarding `COc1ccc(OC)c(C2CCc3c(cnc4nc(N)nc(N)c34)C2)c1` (stereo not drawn), the GI50 with MDA-N was 2.07 µM (inactive); in the assay on OVCAR-3, 15.5 µM (inactive); in the assay with UACC-62 it was 0.673 µM (active); in the assay on A498, 12.3 µM (inactive); in the assay with IGROV-1, 2.29 µM (inactive); in the assay with EKVX, 1.58 µM (inactive). The GI50 in the assay on SW-620 is 10.1 µM (inactive); in the assay with HCT-15, 5.42 µM; in the assay on SR, 3.86 µM (inactive); in the assay with PC-3, 8.2 µM (inactive); with MDA-MB-435, 2.56 µM (inactive); in the assay on SK-MEL-2, 15.2 µM (inactive). Further, the GI50 is 10.2 µM (inactive) in the assay with OVCAR-4; 0.573 µM (active) in the assay on K562; 4.7 µM (inactive) in the assay with OVCAR-5; 10.4 µM (inactive) with HL-60; 3.91 µM (inactive) with ACHN; 10.9 µM (inactive) in the assay on TK-10.

Take `COCCN(C(C)=O)C1CCC2(SCCS2)c2[nH]c3ccccc3c21` (stereo not drawn): the GI50 with MDA-N, in the assay on OVCAR-3, with NCI-H23, with A498, with IGROV-1 and in the assay on EKVX was > 100 µM (inactive) each time. Besides, the GI50 in the assay with SW-620 is > 100 µM (inactive); in the assay with HCT-15 it was more than 100 µM; in the assay with SR, 42.5 µM (inactive); with PC-3, > 100 µM (inactive); in the assay on MDA-MB-435 it was > 100 µM (inactive); in the assay with K562 it was > 100 µM (inactive). The GI50 in the assay with OVCAR-5, in the assay with HL-60, in the assay with ACHN and in the assay on TK-10 was > 100 µM (inactive) throughout.

Regarding `O=c1c2cc(Cl)cc(Cl)c2oc2nc3n(c(=O)c12)CCCS3`, the GI50 is > 100 µM (inactive) with MDA-N; 95.9 µM (inactive) in the assay with OVCAR-3; > 100 µM (inactive) in the assay on NCI-H23; > 100 µM (inactive) in the assay on UACC-62; > 100 µM (inactive) with A498; > 100 µM (inactive) in the assay on IGROV-1. For the same compound, the GI50 in the assay with EKVX was > 100 µM (inactive); in the assay on SW-620, > 100 µM (inactive); in the assay with HCT-15, more than 100 µM; with SR, > 100 µM (inactive); in the assay on PC-3, > 100 µM (inactive); in the assay with MDA-MB-435, > 100 µM (inactive). The GI50 in the assay on SK-MEL-2 was > 100 µM (inactive); in the assay with OVCAR-4, > 100 µM (inactive); in the assay with K562, 76 µM (inactive); with UO-31 it was 18.8 µM (inactive); with OVCAR-5, > 100 µM (inactive); with ACHN it was > 100 µM (inactive). The GI50 in the assay on TK-10 is > 100 µM (inactive).

Consider `CN(C)CCNC(=O)c1ccc(NC(=O)c2nc([N+](=O)[O-])cn2C)cc1`, for which the GI50 in the assay with MDA-N, with OVCAR-3, with NCI-H23, with UACC-62, with A498 and in the assay with IGROV-1 was > 100 µM (inactive) each time. The GI50 was > 100 µM (inactive) with SW-620; more than 100 µM in the assay on HCT-15; > 100 µM (inactive) with SR; > 100 µM (inactive) in the assay with PC-3; > 100 µM (inactive) with MDA-MB-435; > 100 µM (inactive) in the assay with SK-MEL-2. Further, the GI50 in the assay with OVCAR-4, with K562, in the assay with UO-31, in the assay on OVCAR-5, in the assay on HL-60 and with ACHN was > 100 µM (inactive) each time. Further, the GI50 with TK-10 is > 100 µM (inactive).

In the case of `COc1cc([C@@H]2c3cc4c(cc3[C@@H](c3c(O)cc(O)c5c3O[C@H](c3ccc(O)c(O)c3)[C@H](OC(=O)c3cc(O)c(O)c(O)c3)C5)[C@H]3COC(=O)[C@H]23)OCO4)cc(OC)c1OC`, the GI50 with MDA-N is 3.07 µM (inactive); with OVCAR-3 it was 4.01 µM (inactive); with NCI-H23 it was 38.5 µM (inactive); in the assay on UACC-62, 4.73 µM (inactive); with A498, 3.74 µM (inactive); in the assay on IGROV-1, 27 µM (inactive). Moreover, the GI50 in the assay with EKVX was 45.5 µM (inactive); in the assay with SW-620, 5.87 µM (inactive); in the assay on HCT-15 it was 18.7 µM; in the assay on SR it was 2.69 µM (inactive); in the assay with PC-3 it was 5.28 µM (inactive); in the assay with MDA-MB-435 it was 2.54 µM (inactive). Besides, the GI50 is 11.7 µM (inactive) with SK-MEL-2; 16.6 µM (inactive) in the assay on OVCAR-4; 4.78 µM (inactive) in the assay with K562; 53.3 µM (inactive) with OVCAR-5; 1.33 µM (inactive) in the assay with ACHN; > 100 µM (inactive) with TK-10.
